“Also recorded” adds a separate entry of the source. Marks after values point to notes of the source that are not given here.
Experiments:
[1] = molecular target: T1, human recombinant COX-2 (Homo sapiens, UniProt P35354); test: In vitro COX-2 inhibition, enzyme immunoassay; assay type: biochemical; conditions: for COX-2 S.I. (COX-1/COX-2): IC50 (COX-1)/IC50 (COX-2)
T1 sequence (P35354 18-604): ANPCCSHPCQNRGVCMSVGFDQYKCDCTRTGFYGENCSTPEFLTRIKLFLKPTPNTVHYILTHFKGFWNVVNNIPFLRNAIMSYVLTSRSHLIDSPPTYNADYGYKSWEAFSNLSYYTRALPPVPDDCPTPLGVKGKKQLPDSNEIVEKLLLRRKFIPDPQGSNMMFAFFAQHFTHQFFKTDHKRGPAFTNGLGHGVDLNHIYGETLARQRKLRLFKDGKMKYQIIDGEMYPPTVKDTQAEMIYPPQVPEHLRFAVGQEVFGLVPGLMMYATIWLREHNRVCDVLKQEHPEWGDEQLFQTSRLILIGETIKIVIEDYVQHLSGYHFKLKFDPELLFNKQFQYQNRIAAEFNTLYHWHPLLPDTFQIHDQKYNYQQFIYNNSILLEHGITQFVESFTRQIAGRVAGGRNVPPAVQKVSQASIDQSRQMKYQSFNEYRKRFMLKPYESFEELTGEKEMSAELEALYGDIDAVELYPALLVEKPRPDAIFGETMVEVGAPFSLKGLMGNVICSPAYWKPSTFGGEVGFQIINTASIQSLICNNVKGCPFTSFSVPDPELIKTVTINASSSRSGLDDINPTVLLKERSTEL

[2] = assay type: in vivo, White New Zealand rabbits; conditions: normotensive rabbits; for MABP: mean arterial blood pressure, i.v. (jugular vein), means ± SE, n = 4
[3] = molecular target: T2, ovine COX-1 (Ovis aries, UniProt P05979); test: In vitro COX-1 inhibition, enzyme immunoassay; assay type: biochemical
T2 sequence (P05979 25-600): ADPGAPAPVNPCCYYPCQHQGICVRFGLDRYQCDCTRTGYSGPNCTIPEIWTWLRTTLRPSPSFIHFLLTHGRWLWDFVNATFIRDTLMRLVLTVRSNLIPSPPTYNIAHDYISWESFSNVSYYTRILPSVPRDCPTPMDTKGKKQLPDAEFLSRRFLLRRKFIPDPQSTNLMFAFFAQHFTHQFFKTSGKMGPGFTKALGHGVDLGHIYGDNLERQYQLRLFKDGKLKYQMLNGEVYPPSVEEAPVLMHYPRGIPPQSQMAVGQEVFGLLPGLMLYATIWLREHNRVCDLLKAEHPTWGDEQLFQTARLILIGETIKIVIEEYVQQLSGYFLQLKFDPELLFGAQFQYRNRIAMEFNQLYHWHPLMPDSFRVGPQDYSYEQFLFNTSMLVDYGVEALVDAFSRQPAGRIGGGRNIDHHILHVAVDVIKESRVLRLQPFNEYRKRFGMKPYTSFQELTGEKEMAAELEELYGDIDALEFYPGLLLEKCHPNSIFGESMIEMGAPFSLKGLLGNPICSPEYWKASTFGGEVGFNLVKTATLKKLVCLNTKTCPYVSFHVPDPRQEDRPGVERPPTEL

[4] = molecular target: PDE5 (Homo sapiens, UniProt O76074); test: Phosphodiesterase 5 enzyme activity assay; assay type: biochemical; conditions: for inhibition at 10 µM: read-out: PDE5 activity, decrease (↓, inhibition); for effect on PDE5 activity (in words): 10 μM; for PDE5 activity, increase (↑, enhancement): 10 μM compound

Row | SMILES | IC50 [1] | COX-2 S.I. (COX-1/COX-2) [1] | MABP [2] | MABP compared with control (in words) [2] | IC50 [3] | inhibition at 10 µM [4] | effect on PDE5 activity (in words) [4] | PDE5 activity, increase (↑, enhancement) [4] | MABP compared with sildenafil (in words) [2]
1 | CC(=O)C(=NO)C(=O)Nc1nccs1 [Compound 2, 2-(hydroxyimino)-3-oxo-N-(thiazol-2-yl)butanamide] | 0.11 µM | 13.64 | 115^## | significantly higher | 1.5 µM | 53% |  |  | 
2 | CCOC(=O)c1c(C)[nH]c(C(=O)Nc2nccs2)c1C [Compound 5a, Ethyl 2,4-dimethyl-5-(thiazol-2-ylcarbamoyl)-1H-pyrrole-3-carboxylate] | 0.1 µM | 16 | 108^## | significantly higher | 1.6 µM |  | increased the PDE5 activity | 222% | 
3 | CC(=O)c1c(C)[nH]c(C(=O)Nc2nccs2)c1C [Compound 5b, 4-Acetyl-3,5-dimethyl-N-(thiazol-2-yl)-1H-pyrrole-2-carboxamide] | 0.24 µM | 5.4 | 98 | higher than the control values in a nonsignificant manner | 1.3 µM |  | very low activity | 15% | 
4 | Cc1cc(O)n(-c2nccs2)n1 [Compound 7, 3-methyl-1-(thiazol-2-yl)-1H-pyrazol-5-ol] | 0.63 µM | 10.06 | 81^# | significantly lower than that of the control | 6.34 µM | 75% |  |  | insignificantly higher than the sildenafil one
5 | CCOC(=O)CCC(=O)Nc1nccs1 [Compound 11, ethyl 4-oxo-4-(thiazol-2-ylamino)butanoate] | 0.21 µM | 8.1 | 85^& | insignificantly lower than the control values | 1.7 µM |  | very low activity | 3.5% | significantly higher than the sildenafil values
6 | CC(=O)C(C(C)=O)C(=O)Nc1nccs1 [Compound 17, 2-acetyl-3-oxo-N-(thiazol-2-yl)butanamide] | 0.09 µM | 15.56 | 87^& | insignificantly lower than the control values | 1.4 µM |  | increased the PDE5 activity | 371% | significantly higher than the sildenafil values
7 | C/C(=C/C(=O)Nc1nccs1)Nc1ccccc1 [Compound 23a, (Z)-3-(phenylamino)-N-(thiazol-2-yl)but-2-enamide] | 0.71 µM | 8.87 | 108 | without causing hypotension; also recorded: higher than the control values in a nonsignificant manner; also recorded: without a notable decrease in MABP | 6.3 µM | 100% |  |  | 
8 | COc1ccc(N/C(C)=C\C(=O)Nc2nccs2)cc1 [Compound 23b, (Z)-3-((4-methoxyphenyl)amino)-N-(thiazol-2-yl)but-2-en-amide] | 0.56 µM | 10.25 | 110^## | significantly higher; also recorded: without a notable decrease in MABP | 5.74 µM | 100% | increased the PDE5 activity; also recorded: very low activity | 15% | 
9 | C/C(=C/C(=O)Nc1nccs1)Nc1ccc(Cl)cc1 [Compound 23c, (Z)-3-((4-chlorophenyl)amino)-N-(thiazol-2-yl)but-2-enamide] | 0.61 µM | 10.38 | 100 | without causing hypotension; also recorded: higher than the control values in a nonsignificant manner | 6.33 µM | 100% |  |  | 
10 | CCCc1nn(C)c2c(=O)[nH]c(-c3cc(S(=O)(=O)N4CCN(C)CC4)ccc3OCC)nc12 [Sildenafil, sildenafil, reference compound] |  |  | 72.50 ± 2.9 |  |  | 100% |  |  | 
